Like-named read-outs stand apart in the source and are kept apart here.
Key:
[1] = target: T1, Recombinant STAT3 protein (STAT3 (G127-I722)) (Homo sapiens, UniProt P40763); assay: STAT3 Fluorescence Polarization (FP) Assay; format: binding; conditions: probe 5-FAM-GpYLPQTV-NH2 2 nM, 45-minute incubation
T1 construct: Recombinant STAT3 protein (STAT3 (G127-I722))
In short: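 Compounds in serial dilution receive a premix of STAT3 (G127-I722, 25 nM) and fluorescent phosphotyrosine peptide 5-FAM-GpYLPQTV-NH2 (2 nM) at pH 7.4. After 45 min at room temperature, FP is measured and IC50 derived by nonlinear regression.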

[2] = target: T2, Recombinant STAT6 protein (STAT6 (W123-T658)) (Homo sapiens, UniProt P42226); assay: STAT6 Fluorescence Polarization (FP) Assay; format: binding; conditions: 45-minute incubation
T2 construct: Recombinant STAT6 protein (STAT6 (W123-T658))
T2 sequence (P42226 123-658): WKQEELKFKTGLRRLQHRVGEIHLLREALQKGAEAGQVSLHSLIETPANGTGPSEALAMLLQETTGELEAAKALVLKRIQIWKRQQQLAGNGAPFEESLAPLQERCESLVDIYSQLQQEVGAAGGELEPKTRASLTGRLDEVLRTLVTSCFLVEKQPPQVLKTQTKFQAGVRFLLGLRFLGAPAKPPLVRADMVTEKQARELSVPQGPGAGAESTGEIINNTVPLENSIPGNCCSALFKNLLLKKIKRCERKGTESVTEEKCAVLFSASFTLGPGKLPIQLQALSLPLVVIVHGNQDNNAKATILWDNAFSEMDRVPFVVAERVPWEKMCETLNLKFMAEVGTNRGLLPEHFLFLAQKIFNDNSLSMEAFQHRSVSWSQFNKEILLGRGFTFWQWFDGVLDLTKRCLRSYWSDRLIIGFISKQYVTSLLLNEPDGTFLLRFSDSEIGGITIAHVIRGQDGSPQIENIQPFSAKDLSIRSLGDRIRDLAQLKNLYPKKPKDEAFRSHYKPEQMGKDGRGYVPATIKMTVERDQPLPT
In short: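 Competitive FP binding: recombinant STAT6 (W123-T658) at 250 nM, labeled phosphotyrosine peptide at 2 nM, compounds at 1% DMSO, 45 min at RT before reading. IC50 values were obtained from nonlinear regression of mP versus log concentration.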

[3] = STAT3 (G127-I722) 25 nM, read-out: STAT3 (FP assay IC50 class)
[4] = STAT6 (W123-T658) 250 nM, probe 5-FAM-Ap[…]-NH2 2 nM, read-out: STAT6 (FP assay IC50 class)
[5] = STAT3 25 nM, read-out: STAT3 (FP assay IC50)
[6] = STAT6 250 nM, probe 5-FAM-Ap[…]-NH2 2 nM, read-out: STAT6 (FP assay IC50)
[7] = STAT6 (W123-T658) 250 nM, probe 5-FAM-ApYKPFQDLI-NH2 2 nM, read-out: STAT6 (FP assay IC50 class)

T1 sequence (P40763 127-722): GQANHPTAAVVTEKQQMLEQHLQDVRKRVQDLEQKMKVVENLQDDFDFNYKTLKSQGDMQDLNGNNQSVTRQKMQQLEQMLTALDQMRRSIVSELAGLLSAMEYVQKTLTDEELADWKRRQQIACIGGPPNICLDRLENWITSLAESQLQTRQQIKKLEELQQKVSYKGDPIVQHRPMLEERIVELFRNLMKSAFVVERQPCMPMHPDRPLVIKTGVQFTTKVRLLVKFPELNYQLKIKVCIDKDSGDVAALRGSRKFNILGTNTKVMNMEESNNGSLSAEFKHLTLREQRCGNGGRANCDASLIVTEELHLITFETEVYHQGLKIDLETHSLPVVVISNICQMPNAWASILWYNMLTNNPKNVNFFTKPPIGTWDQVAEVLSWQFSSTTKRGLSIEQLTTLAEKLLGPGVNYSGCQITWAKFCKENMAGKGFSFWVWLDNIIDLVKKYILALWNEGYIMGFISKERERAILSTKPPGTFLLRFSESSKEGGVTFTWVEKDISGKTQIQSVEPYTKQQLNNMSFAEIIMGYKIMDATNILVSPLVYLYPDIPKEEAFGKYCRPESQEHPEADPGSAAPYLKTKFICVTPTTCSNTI

Row | SMILES | IC50 [1, 3] [µM] | IC50 [2, 4] [µM] | IC50 [1, 5] [µM] | IC50 [2, 6] [µM] | IC50 [2, 7] [µM]
1 | O=C(N[C@H]1CCCC[C@H]2CC[C@@H](C(=O)N3C[C@H](c4cc[nH]c(=O)c4)CC34CC4)N2C1=O)c1ccc2ccc(CP(=O)(O)O)cc2c1 [Compound 882, ((7-(((3S,6S,10aS)-5-oxo-3-((S)-6-(2-oxo-1,2-dihydropyridin-4-yl)-4-azaspiro[2.4]heptane-4-carbonyl)decahydropyrrolo[1,2-a]azocin-6-yl)carbamoyl)naphthalen-2-yl)methyl) phosphonic acid] | 1 to 10 | 0.3 to 3 | – | – | –
2 | O=C(N[C@H]1CCCC[C@H]2CC[C@@H](C(=O)N3CCC(c4cccnc4)C3)N2C1=O)c1cc2cc(CP(=O)(O)O)ccc2s1 (stereo partly drawn) [Compound 509, ((2-(((3S,6S,10aS)-5-oxo-3-(3-(pyridin-3-yl)pyrrolidine-1-carbonyl)decahydropyrrolo[1,2-a]azocin-6-yl)carbamoyl)benzo[b]thiophen-5-yl)methyl)phosphonic acid] | 1 to 10 | 3 to 30 | – | – | –
3 | CCO[C@@H]1CC[C@H](NC(=O)c2cc3cc(C(F)(F)P(=O)(O)O)ccc3s2)C(=O)N2[C@H](CC[C@H]2C(=O)N2CC(C(=O)N3CCOCC3)C2)C1 [Compound 9, ((2-(((3S,6S,9R,10aR)-9-ethoxy-3-(3-(morpholine-4-carbonyl)azetidine-1-carbonyl)-5-oxodecahydropyrrolo [1,2-a]azocin-6-yl)carbamoyl)benzo[b]thiophen-5-yl)difluoromethyl) phosphonic acid] | – | – | 0.1 to 1 | 3 to 30 | –
4 | O=C(N[C@H]1CCC[C@H]2CCC[C@@H](C(=O)N3CC(n4ccnc4)C3)N2C1=O)c1cc2cc(C(F)(F)P(=O)(O)O)ccc2s1 [Compound 60, ((2-(((4S,7S,10aS)-4-(3-(1H-imidazol-1-yl)azetidine-1-carbonyl)-6-oxodecahydropyrido [1,2-a]azepin-7-yl)carbamoyl)benzo[b]thiophen-5-yl)difluoromethyl) phosphonic acid] | – | – | < 0.1 | 3 to 30 | –
5 | CS(=N)(=O)CC1CN(C(=O)[C@@H]2CC[C@@H]3CCCC[C@H](NC(=O)c4cc5cc(C(F)(F)P(=O)(O)O)ccc5s4)C(=O)N32)C1 (stereo partly drawn) [Compound 66, (difluoro(2-(((3S,6S,10aS)-3-(3-((S-methyl-sulfonimidoyl)methyl)azetidine-1-carbonyl)-5-oxodecahydropyrrolo [1,2-a]azocin-6-yl)carbamoyl)benzo[b]thiophen-5-yl)methyl) phosphonic acid] | – | – | < 0.1 | 3 to 30 | –
6 | N#CCC1CN(C(=O)[C@@H]2CC[C@@H]3CCC[C@H](NC(=O)c4cc5cc(C(F)(F)P(=O)(O)O)ccc5s4)C(=O)N32)C1 [Compound 50, ((2-(((3S,6S,9aS)-3-(3-(cyanomethyl)azetidine-1-carbonyl)-5-oxooctahydro-1H-pyrrolo[1,2-a]azepin-6-yl)carbamoyl)benzo[b]thiophen-5-yl)difluoromethyl) phosphonic acid] | – | – | 0.1 to 1 | 0.3 to 3 | –
7 | N#C[C@H]1[C@H](c2ccccc2)CN(C(=O)[C@@H]2CC[C@@H]3CCCC[C@H](NC(=O)c4cc5cc([C@@H](F)P(=O)(O)O)ccc5s4)C(=O)N32)C12CC2 (single isomer, unassigned) [Compound 836] | 1 to 10 | ≤ 0.3 | – | – | –
8 | O=C(N[C@H]1CCCC[C@H]2CC[C@@H](C(=O)N3CC(c4cccnc4)CC34CC4)N2C1=O)c1cc2cc([C@@H](F)P(=O)(O)O)ccc2s1 (stereo in doubt) [Compound 910, ((S)-fluoro(2-(((3S,6S,10aS)-5-oxo-3-((R)-6-(pyridin-3-yl)-4-azaspiro[2.4]heptane-4-carbonyl)decahydropyrrolo[1,2-a]azocin-6-yl)carbamoyl)benzo [b]thiophen-5-yl)methyl) phosphonic acid] | 1 to 10 | – | – | – | ≤ 0.3
9 | COc1cncc([C@@H]2CN(C(=O)[C@@H]3CC[C@@H]4CCC[C@H](NC(=O)c5cc6cc([C@H](F)P(=O)(O)O)ccc6s5)C(=O)N43)C3(CC3)[C@H]2C#N)c1 (single isomer, unassigned) [Compound 847] | 1 to 10 | – | – | – | 0.3 to 3
10 | Cc1ccncc1C1CN(C(=O)[C@@H]2CC[C@@H]3C[C@@H](C)CC[C@H](NC(=O)c4cc5cc(CP(=O)(O)O)ccc5s4)C(=O)N32)C1 [Compound 655, ((2-(((3S,6S,9S,10aR)-9-methyl-3-(3-(4-methylpyridin-3-yl)azetidine-1-carbonyl)-5-oxodecahydropyrrolo [1,2-a]azocin-6-yl)carbamoyl)benzo [b]thiophen-5-yl)methyl) phosphonic acid] | 0.1 to 1 | 3 to 30 | – | – | –
11 | N#CC1CN(C(=O)[C@@H]2C[C@@H](O)[C@@H]3C/C=C\C[C@H](NC(=O)c4cc5cc(C(F)(F)P(=O)(O)O)ccc5s4)C(=O)N23)CC1c1ccccc1 (mixture of isomers) [Compound 729, ((2-(((1R,3S,6S,10aS,Z)-3-((rel-trans)-3-cyano-4-phenylpyrrolidine-1-carbonyl)-1-hydroxy-5-oxo-1,2,3,5,6,7,10,10a-octahydropyrrolo[1,2-a]azocin-6-yl)carbamoyl)benzo [b]thiophen-5-yl)difluoromethyl) phosphonic acid] | 0.1 to 1 | ≤ 0.3 | – | – | –
12 | CS(=N)(=O)c1cnc(C2CN(C(=O)[C@@H]3CC[C@@H]4CCCC[C@H](NC(=O)c5cc6cc(C(F)(F)P(=O)(O)O)ccc6s5)C(=O)N43)C2)nc1 (stereo partly drawn) [Compound 719, (difluoro(2-(((3S,6S,10aS)-3-(3-(5-(S-methylsulfonimidoyl)pyrimidin-2-yl)azetidine-1-carbonyl)-5-oxodecahydropyrrolo [1,2-a]azocin-6-yl)carbamoyl)benzo [b]thiophen-5-yl)methyl) phosphonic acid] | 0.1 to 1 | 3 to 30 | – | – | –

The next lines start with results.

Row | IC50 [1, 3] [µM] | IC50 [2, 4] [µM] | IC50 [1, 5] [µM] | IC50 [2, 6] [µM] | SMILES | IC50 [2, 7] [µM]
13 | 0.1 to 1 | 3 to 30 | – | – | CN(C)c1cncc(C2CN(C(=O)[C@@H]3CC[C@@H]4CCC[C@H](NC(=O)c5cc6cc([C@H](F)P(=O)(O)O)ccc6s5)C(=O)N43)C2)c1Cl (single isomer, unassigned) [Compound 713] | –
14 | 0.1 to 1 | 3 to 30 | – | – | Cn1ncc(C2CN(C(=O)[C@@H]3CC[C@@H]4CCC[C@H](NC(=O)c5cc6cc(C(F)P(=O)(O)O)ccc6s5)C(=O)N43)C2)c1F (stereo partly drawn) [Compound 635, (fluoro(2-(((3S,6S,9aS)-3-(3-(5-fluoro-1-methyl-1H-pyrazol-4-yl)azetidine-1-carbonyl)-5-oxooctahydro-1H-pyrrolo[1,2-a]azepin-6-yl)carbamoyl)benzo [b]thiophen-5-yl)methyl) phosphonic acid] | –
15 | 0.1 to 1 | 3 to 30 | – | – | O=C(N[C@H]1CCCC[C@H]2CC[C@@H](C(=O)N3CC(c4cncc(-c5ccccc5)c4)C3)N2C1=O)c1cc2cc(C(F)(F)P(=O)(O)O)ccc2s1 [Compound 518, (difluoro(2-(((3S,6S,10aS)-5-oxo-3-(3-(5-phenylpyridin-3-yl)azetidine-1-carbonyl)decahydropyrrolo[1,2-a]azocin-6-yl)carbamoyl)benzo[b]thiophen-5-yl)methyl)phosphonic acid] | –
16 | 0.1 to 1 | 3 to 30 | – | – | COC1(CS(C)(=N)=O)CN(C(=O)[C@@H]2CC[C@@H]3CCC[C@H](NC(=O)c4cc5cc(C(F)(F)P(=O)(O)O)ccc5s4)C(=O)N32)C1 (stereo partly drawn) [Compound 822, (difluoro(2-(((3S,6S,9aS)-3-(3-methoxy-3-((S-methylsulfonimidoy 1)methyl)azetidine-1-carbonyl)-5-oxooctahydro-1H-pyrrolo[1,2-a]azepin-6-yl)carbamoyl)benzo [b]thiophen-5-yl)methyl) phosphonic acid] | –
17 | < 0.1 | 3 to 30 | – | – | O=C(N[C@H]1CCC[C@H]2CC[C@@H](C(=O)N3CC(c4cncnc4N4CCOCC4)C3)N2C1=O)c1cc2cc([C@@H](F)P(=O)(O)O)ccc2s1 (single isomer, unassigned) [Compound 861] | –
18 | < 0.1 | 0.3 to 3 | – | – | O=C(N[C@H]1CCC[C@H]2CC[C@@H](C(=O)N3CC(c4cnccc4F)C3)N2C1=O)c1cc2cc([C@H](F)P(=O)(O)O)ccc2s1 (single isomer, unassigned) [Compound 600] | –
